Where two headings read alike, the source gives them in different places.
Tests used:
[1] = system: crude enzyme mixture from salmon intestine; experiment: Hydrolysis with crude enzyme mixture from salmon intestine (Example 4); type: in vitro ADME; conditions: after 48 hours hydrolysis; for Diol (%): diol = free astaxanthin
Experimental: (§1) Tris buffer (0.25 M) solution was prepared by dissolving Tris (4.54 g; 37.5 mmol) in 150 ml of distilled water. The pH of the buffer solution was adjusted to 8.0 by adding 2 M hydrochloric acid. All the hydrolysis was done at room temperature so no special effort was necessary.
(§2) The astaxanthin diester was weighed accurately (˜40 mg, […]) along with 2.5 g of chremophor EL emulsifier (from BASF) into 100 ml Erlenmeyer flask. The solution was stirred vigorously for 20 minutes (until homogeneous) and then 20 ml of the Tris buffer was added and stirred for additional 10 minutes. The solution was suction filtered and the red filtrate was poured into 25 ml volumetric flask and diluted to the mark with buffer. Concentration of all the solution was determined spectrophotometically (492 nm) to be about 1 mg/ml, except for diacetate which was obtained in a lower concentration. All the solutions were stored in refrigerator wrapped in aluminium paper.
(§3) Fresh salmon and rainbow trout, that had been fed in the last 12 hours, were obtained from local fish farms. At the laboratory the fresh fish was cut open and the crude enzyme mixture extracted as follows: From the digestion line there were a lot of narrow tubes surrounded by fat tissue. Each of them was cut off and extracted by hand into a cooled container. The viscous solution (−50 ml) was diluted to 100 ml with 0.25 M Tris buffer and stirred for 30 minutes in an ice bath. Next step was centrifugation at 11.000 rpm for 20 minutes at 4° C. (RC5C from Du Pont). The water layer was extracted by pipette to another centrifuge glasses and the centrifugation repeated at 18.000 rpm for 30 minutes at 4° C. The water layer was transferred to Erlenmeyer flask and quickly frozen by liquid nitrogen. Before starting the reaction the mixture was thawed and purified by ultracentrifuge at 27.000 rpm for 45 minutes at 4° C. (157.000 g at top). The lipase preparation was obtained as a clear yellow solution.
(§4) Into a 10 ml round bottom flask was added 2 ml of stock solution and 3 ml of crude enzyme mixture from fish intestine. The flask was filled with nitrogen before closing, wrapped in aluminium paper and stirred for 48 hours. When finished, all the water was removed under reduced pressure (0.01 Torr) and redissolved in CH2Cl2. The solution was filtered through cotton wool plug and stored under nitrogen in a closed container. Analytical TLC was used to monitor the progress of the reaction with 5% acetone in CH2Cl2 as eluent (Diol(Rf=0.0-0.1), Monoest. (Rf=0.3-0.5), Diest. (Rf=0.8-0.9)). To determine the degree of hydrolysis all the samples were injected into analytical HPLC. [Eluent: 30% acetone in n-hexane. Column: Nucleosil 50-5 (2×30 cm) column. Flow rate: 0.15 ml/min. Detector: 470 nm (Diol Rf=0.4-0.5, Monoest. Rf=0.7, Diest. Rf=0.9-1.0)].
A similar experiment as in Example 2 was performed with enzymes from salmon intestinal fluid.
The diesters that were hydrolysed were prepared by esterification of astaxanthin with the following carboxylic acids:
Acetic acid, C16:0 (palmitic acid), fatty acids from a fish oil rich in omega-3 fatty acids (approx. 18% EPA and 12% DHA, called K30 in the tables below), a concentrate of omega-3 fatty acids (approx. 30% EPA and 20% DHA, called K55 in the tables below), the same concentrate of EPA and DHA as used in example 2 (approx. 50% EPA and 35% DHA, called ACD in the tables below), purified EPA (more than 95% EPA, called EPA in the tables) and purified DHA (more than 90% DHA, called DHA in the tables).

[2] = system: crude enzyme mixture from rainbow trout intestine; experiment: Hydrolysis with crude enzyme mixture from rainbow trout intestine (Example 5); type: in vitro ADME, rainbow trout (Oncorhynchus mykiss); conditions: after 48 hours hydrolysis; for Diol (%): diol = free astaxanthin
Experimental: as §1, §2, §3, §4
A similar example as Example 2b was performed. However, for this Example crude enzyme preparation from rainbow trout (Oncorhynchus mykiss) was used. […] For the fish oil 37% was unreacted, while for ACD only 14% remained unreacted. As for salmon, we observe that EPA reacts faster than DHA (17 and 21% unreacted), however for rainbow trout we observe that an omega-3 concentrate like the ACD diester gives higher degree of hydrolysis than the diester of purified EPA.

[3] = system: enzymes from salmon intestinal fluid; experiment: Hydrolysis of astaxanthin diesters with enzymes from salmon intestinal fluid (Example 2); type: in vitro ADME, Atlantic salmon; conditions: after 45 hours at room temperature
Experimental: To verify the hydrolysis data for these astaxanthin diesters obtained by using the commercial lipase, another similar experiment was performed by using enzyme isolated from the intestine of Atlantic salmon.
A similar experiment as Example 1 was performed with enzymes from salmon intestinal fluid. The intestinal fluid from salmon was collected as described from cod (Lie, Ø. et al., Comp. Biochem. Physiol., 80B (3), (1985), pp. 447-450). The following results were obtained after 45 hours at room temperature: […]

[4] = system: commercial lipase, Candida rugosa (Lipase AY, 30); experiment: Hydrolysis of astaxanthin diesters by commercial lipase
Experimental: We synthesised several other diesters in order to study whether these hydrolysed faster than the dipalmitate.
Diesters of astaxanthin were prepared with the following carboxylic acids: elaidic acid (trans-C18:1), palmitic acid (C16:0), decanoic acid (C10:0) and a concentrate of omega-3 fatty acids comprising approximately 50% eicosapentaenoic acid (EPA) (all cis C20:5 n3) and approximately 35% docosahexaenoic acid (DHA) (all cis C22:6 n3). The different diesters were firstly hydrolysed by a commercial lipase, Candida rugosa (Lipase AY, 30).

[5] = cited from earlier work

SMILES | Diesters (%) [1] | Monoesters (%) [1] | Diol (%) [1] | Diesters (%) [2] | Monoesters (%) [2] | Diol (%) [2] | Free astaxanthin (%) [3] | Free astaxanthin (%) ([4]; after 42 hours at room temperature, commercial lipase Candida rugosa) | Free astaxanthin (%) ([3]; listed as C10:0) | Free astaxanthin (%) ([3]; listed as didecanoate) | Diol (%) ([1]; listed as diester of astaxanthin with palmitic acid (16:0)) | pigmentation compared with the diol ([5]; literature) | absorption compared with free astaxanthin ([5]; rainbow trout, sea trout and Atlantic salmon) | Free astaxanthin (%) [4]
CC/C=C\C/C=C\C/C=C\C/C=C\C/C=C\CCCC(=O)O[C@H]1CC(C)(C)C(/C=C/C(C)=C/C=C/C(C)=C/C=C/C=C(C)/C=C/C=C(C)/C=C/C2=C(C)C(=O)[C@@H](OC(=O)CCC/C=C\C/C=C\C/C=C\C/C=C\C/C=C\CC)CC2(C)C)=C(C)C1=O [EPA] | 27% | 67% | 6% | 17% | 58% | 25% |  |  |  |  |  |  |  | 
CC/C=C\C/C=C\C/C=C\C/C=C\C/C=C\C/C=C\CCC(=O)O[C@H]1CC(C)(C)C(/C=C/C(C)=C/C=C/C(C)=C/C=C/C=C(C)/C=C/C=C(C)/C=C/C2=C(C)C(=O)[C@@H](OC(=O)CC/C=C\C/C=C\C/C=C\C/C=C\C/C=C\C/C=C\CC)CC2(C)C)=C(C)C1=O [DHA] | 44% | 53% | 3% | 21% | 55% | 24% |  |  |  |  |  |  |  | 
CCCCCCCCC=CCCCCCCCC(=O)OC1CC(C)(C)C(C=CC(C)=CC=CC(C)=CC=CC=C(C)C=CC=C(C)C=CC2=C(C)C(=O)C(OC(=O)CCCCCCCC=CCCCCCCCC)CC2(C)C)=C(C)C1=O (stereo not shown) [18:1] |  |  |  |  |  |  | 1% | 73% |  |  |  |  |  | 
CCCCCCCCCC(=O)O[C@H]1CC(C)(C)C(/C=C/C(C)=C/C=C/C(C)=C/C=C/C=C(C)/C=C/C=C(C)/C=C/C2=C(C)C(=O)[C@@H](OC(=O)CCCCCCCCC)CC2(C)C)=C(C)C1=O [10:0] |  |  |  |  |  |  | 6% |  | hydrolysed much faster than the dipalmitate | 6% |  |  |  | 
CCCCCCCCCCCCCCCC(=O)O[C@H]1CC(C)(C)C(/C=C/C(C)=C/C=C/C(C)=C/C=C/C=C(C)/C=C/C=C(C)/C=C/C2=C(C)C(=O)[C@@H](OC(=O)CCCCCCCCCCCCCCC)CC2(C)C)=C(C)C1=O [16:0, astaxanthin dipalmitate, reference compound] | 81% | 19% | 0% | 71% | 18% | 11% | 1% |  |  |  | no free astaxanthin | less pigmentation than the diol | absorbed less easy than free astaxanthin | 40%
CC(=O)O [Acetate] | 13% | 80% | 7% | 3% | 83% | 14% |  |  |  |  |  |  |  | 

Source: patent US6709688B1, “Pigment” (Norsk Hydro ASA, priority 1999, dated 2004)
